Consider 63 molecules from patent US20210198277A1, “AMINE-SUBSTITUTED ARYL OR HETEROARYL COMPOUNDS” (Epizyme, Inc., priority 2016, published 2021).

The assay deals with T1, human EHMT2 913-1193 (Homo sapiens, UniProt Q96KQ7).
T1 construct: recombinant purified human EHMT2 913-1193, Viva; purchased Viva
T1 sequence (Q96KQ7 913-1193): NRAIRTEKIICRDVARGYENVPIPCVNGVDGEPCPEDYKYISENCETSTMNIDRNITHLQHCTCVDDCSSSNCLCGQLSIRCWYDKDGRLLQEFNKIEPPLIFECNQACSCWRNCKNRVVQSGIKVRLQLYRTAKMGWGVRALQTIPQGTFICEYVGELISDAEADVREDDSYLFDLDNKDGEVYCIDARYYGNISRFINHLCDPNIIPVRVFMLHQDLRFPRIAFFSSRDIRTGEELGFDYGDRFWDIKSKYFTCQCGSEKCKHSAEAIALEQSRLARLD
The assay can be described thus: EHMT2 enzyme assay on histone peptide substrate (EHMT2 PEP). The format is biochemical. Conditions: recombinant human EHMT2 913-1193, histone H3 1-15 peptide, balanced conditions; read-out: EHMT2 PEP (IC50 μM). The gist of the method:
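Compounds were tested as 3-fold dilutions, 10 points from a 50 μM final top (2% DMSO), after 30-min preincubation with 0.031 nM enzyme in Bicine buffer pH 7.5. Transfer of ^3H-methyl from ^3H-SAM to biotinylated histone peptide ran 60 min at room temperature and was detected by streptavidin Flashplate scintillation.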

Each structure is given as a SMILES string.

Usually IC50 stands for the concentration at which inhibition is half-maximal.

In the case of `COc1cc(NC2CCCNC2)ccc1OCCCN1CCCC1` (stereo not drawn) [Compound 578], the IC50 was 1 to 10 µM.
In the case of `CN1CCC(COc2cnc(NCC3CCOCC3)nc2)C1` (stereo not drawn) [Compound 553], the 50% inhibitory concentration (IC50) was more than 10 µM.
Consider `CCN1CC(COc2cc(Nc3nccc4[nH]ccc34)ncc2OC)C1` [Compound 564], for which the IC50 was less than 0.1 µM.
The result for `CNc1ccnc(NC2(C)CCCNC2)n1` (stereo not drawn) [Compound 546, N^4-methyl-N^2-(3-methylpiperidin-3-yl)pyrimidine-2,4-diamine] reads more than 10 µM; that for `COc1ccc(Nc2nccc3[nH]ncc23)cc1OCCCN1CCCC1` [Compound 582], more than 10 µM.
With `CNc1ccnc(NC2CCNCC2)n1` [Compound 542, N^4-methyl-N^2-(piperidin-4-yl)pyrimidine-2,4-diamine], the IC50 was more than 10 µM.
The result for `CCN1CC(COc2cc(Nc3cccc4nncn34)ncc2OC)C1` [Compound 584] reads more than 10 µM.
The value for `COc1cnc(Nc2cccn3ccnc23)cc1OCCCN1CCCC1` [Compound 586] was 1 to 10 µM.
The result for `CN1CCC(COc2cnc(NC3CCNCC3)nc2)C1` (stereo not drawn) [Compound 555] reads more than 10 µM; that for `COc1cnc(Nc2cccc3nccn23)cc1OCCCN1CCCC1` [Compound 585], 1 to 10 µM.
Turning to `COc1cnc(Nc2ccnc3[nH]ncc23)cc1OCCCN1CCCC1` [Compound 583], the IC50 was 1 to 10 µM.
Regarding `CNc1cc(C)nc(Nc2ccc(OC)c(OCCCN3CC4(CC4)C3)c2)n1` [Compound 574], the IC50 lay within 1 to 10 µM.
The result for `CCc1cc(NC)nc(Nc2cnc(OC)c(OC[C@@H]3CCN(CC)C3)c2)n1` [Compound 601] reads 0.1 to 1 µM; that for `COc1ccc(NC2CCNCC2)cc1OCCCN1CCCC1` [Compound 572], more than 10 µM.
The value for `COc1ncc(Nc2nc(C)cc(NCC3CCOCC3)n2)cc1OC[C@@H]1CCN(C2CCC2)C1` [Compound 595] was 0.1 to 1 µM.
The value for `CNc1cc(C)nc(Nc2ccc(OC)c(OC[C@@H]3CCN(C4CCC4)C3)c2)n1` [Compound 563] was less than 0.1 µM; that for `c1nc(NC2CCOCC2)ncc1OCC1CCN(C2CC2)C1` (stereo not drawn) [Compound 557] was more than 10 µM.
Turning to `COc1ncc(Nc2nc(C)cc(NCC3CCOCC3)n2)cc1OC[C@@H]1CCN(C(C)C)C1` [Compound 592], the IC50 was 0.1 to 1 µM.
With `CCCCN1CCCC(C)(Nc2nccc(NC)n2)C1` (stereo not drawn) [Compound 549, N^2-(1-butyl-3-methylpiperidin-3-yl)-N^4-methylpyrimidine-2,4-diamine], the IC50 was more than 10 µM.
Regarding `CNc1cc(C)nc(Nc2ccc(OC)c(OCCCN(C)C3CCC3)c2)n1` [Compound 551, N^2-(3-(3-(cyclobutyl(methyl)amino)propoxy)-4-methoxyphenyl)-N^4,6-dimethylpyrimidine-2,4-diamine], the concentration for half-maximal inhibition (IC50) was in the range of 0.1 to 1 µM.
On to `COc1cnc(Nc2cccc3cncn23)cc1OCCCN1CCCC1` [Compound 589], for which the half-inhibitory concentration (IC50) was more than 10 µM.
For `CNc1ccnc(Nc2cc(OCCCN3CCCC3)c3cn[nH]c3c2)n1` [Compound 538, N^4-methyl-N^2-(4-(3-(pyrrolidin-1-yl)propoxy)-1H-indazol-6-yl)pyrimidine-2,4-diamine], the IC50 is 0.1 to 1 µM.
For the molecule `CNc1cc(C)nc(Nc2ccc(OC)c(OCC3CN(C4CCOC4)C3)c2)n1` (stereo not drawn) [Compound 580], the IC50 is more than 10 µM.
In the case of `CCN1CC[C@@H](COc2cc(Nc3nc(C)cc(NC(C)C)n3)ccc2OC)C1` [Compound 602], the IC50 fell in the range of 0.1 to 1 µM.
The result for `CC(C)N1CC(COc2cnc(NC3CCNCC3)nc2)C1` [Compound 588] reads more than 10 µM.
As for `CNc1cc(C)nc(Nc2ccc(OC)c(OCC3CN(C(C)C)C3)c2)n1` [Compound 559], the IC50 lay in the range of 0.1 to 1 µM.
As for `c1nc(NC2CCNCC2)ncc1OCC1CCN(C2CC2)C1` (stereo not drawn) [Compound 556], the IC50 was more than 10 µM.
In the case of `CCN1CC(COc2cc(Nc3cc(NC)cc(C)n3)cnc2OC)C1` [Compound 569], the IC50 was in the range of 0.1 to 1 µM.
In the case of `CN1CCC(COc2ccc(NC3CCNCC3)nc2)C1` (stereo not drawn) [Compound 554], the IC50 is more than 10 µM.
The value for `COc1ncc(Nc2nc(C)cc(NC(C)C)n2)cc1OCCCN1CCCC1` [Compound 593] was 0.1 to 1 µM; that for `COc1cc(Nc2nc(C)cc3[nH]ncc23)ncc1OCCCN1CCCC1` [Compound 565] was 1 to 10 µM.
`CCN1CC[C@@H](COc2cc(Nc3nc(C)cc(NC)n3)ccc2OC)C1` [Compound 571]: the IC50 is less than 0.1 µM.
In the case of `CCCC1(Nc2nccc(NC)n2)CCNCC1` [Compound 545], the IC50 is more than 10 µM.
The result for `COc1cnc(Nc2cccc3[nH]ncc23)cc1OCCCN1CCCC1` [Compound 581] reads 1 to 10 µM; that for `CNc1ccnc(Nc2cc(OCCCN3CCCC3)c3[nH]ncc3c2)n1` [Compound 539], 1 to 10 µM.
The value for `COc1ccc(Nc2nc(C)cc(NC(C)C)n2)cc1OCCCN1CCCC1` [Compound 603] was less than 0.1 µM.
On to `COc1ccc(NC2CCCNC2)cc1OCCCN1CCCC1` (stereo not drawn) [Compound 573], for which the IC50 was 1 to 10 µM.
The value for `C/C=C/C(=O)Nc1cc(OCCCN2CCCC2)c(OC)cn1` [Compound 597] was more than 10 µM; that for `CNc1cc(C)nc(Nc2ccc(OC)c(OC[C@@H]3CCN(C4(C)CC4)C3)c2)n1` [Compound 568] was 0.1 to 1 µM.
The result for `CCN1CC(COc2cc(Nc3cc(NC)nc(C)c3F)ncc2OC)C1` [Compound 567] reads 1 to 10 µM.
Consider `COc1ncc(Nc2nc(C)cc(NCC3CCOCC3)n2)cc1OCCCN1CCCC1` [Compound 591], for which the IC50 is less than 0.1 µM.
For the molecule `CNc1ccnc(NC2(C)CCNCC2)n1` [Compound 547, N^4-methyl-N^2-(4-methylpiperidin-4-yl)pyrimidine-2,4-diamine], the half-maximal inhibitory concentration (IC50) was more than 10 µM.
As to `COc1cc(NC2CCNCC2)ccc1OCCCN1CCCC1` [Compound 579], the IC50 lay in the range of 1 to 10 µM.
The result for `CCN1CC[C@@H](COc2cc(Nc3nc(C)cc(NC)n3)cnc2OC)C1` [Compound 599] reads 0.1 to 1 µM; that for `CCN1CC(C(C#N)Oc2cc(Nc3nc(C)cc(NC)n3)ccc2OC)C1` (stereo not drawn) [Compound 562], 1 to 10 µM.
`CCCCN1CCC(C)(Nc2nccc(NC)n2)CC1` [Compound 550, N^2-(1-butyl-4-methylpiperidin-4-yl)-N^4-methylpyrimidine-2,4-diamine]: the IC50 is more than 10 µM.
The result for `CCN1CC(C(O)Oc2cc(Nc3nc(C)cc(NC)n3)ccc2OC)C1` (stereo not drawn) [Compound 560] reads 0.1 to 1 µM; that for `CNc1cc(C)nc(Nc2ccc(OC)c(OCC3CN(C4CCCC4)C3)c2)n1` [Compound 577], 1 to 10 µM; that for `CNc1cc(C)nc(Nc2cnc(OC)c(OC[C@H]3CCN(C4CC4)C3)c2)n1` [Compound 558], 0.1 to 1 µM.
On to `COc1cnc(Nc2cc(C)nc3[nH]ncc23)cc1OCCCN1CCCC1` [Compound 596], for which the IC50 is 1 to 10 µM.
In the case of `CNc1cc(C)nc(Nc2ccc(OC)c(OC[C@@H]3CCNC3)c2)n1` [Compound 600], the IC50 is less than 0.1 µM.
As for `CNc1cc(C)nc(Nc2ccc(OC)c(O)c2)n1` [Compound 561], the IC50 is more than 10 µM.
With `COc1ccc(Nc2nc(C)cc(NCC3CCOCC3)n2)cc1OCCCN1CCCC1` [Compound 590], the IC50 was less than 0.1 µM.
Take `C/C=C/C(=O)Nc1ccc(OC)c(OCCCN2CCCC2)c1` [Compound 598]: the IC50 is more than 10 µM.
On to `CCCC1(Nc2nccc(NC)n2)CCCNC1` (stereo not drawn) [Compound 544], for which the half-inhibitory concentration (IC50) is more than 10 µM.
The value for `CNc1cc(C)nc(Nc2ccc(OC)c(OCC3CN(C(C)C)C3)c2)n1` [Compound 575] was 1 to 10 µM; that for `COc1ncc(Nc2nc(C)cc(NCC3CCOCC3)n2)cc1OC[C@@H]1CCN(C2CCC2)C1` [Compound 594] was 0.1 to 1 µM; that for `COc1cc2c(C3CCN(C)CC3)nc(N(C)C)nc2cc1OCCCN1CCCC1` [Compound 587] was less than 0.1 µM.
The value for `CNc1ccnc(NC2CCCNC2)n1` (stereo not drawn) [Compound 541, N^4-methyl-N^2-(piperidin-3-yl)pyrimidine-2,4-diamine] was more than 10 µM.
The value for `CCN1CC(COc2cc(Nc3cc(NC)ncc3F)ncc2OC)C1` [Compound 566] was 1 to 10 µM.
`c1nc(NC2CCNCC2)ncc1OCCCN1CCCC1` [Compound 552]: the IC50 is more than 10 µM.
On to `CNc1ccnc(N[C@@H]2CC[C@H](N)C2)n1` [Compound 548, N^2-((1R,3S)-3-aminocyclopentyl)-N^4-methylpyrimidine-2,4-diamine], for which the IC50 is more than 10 µM.
For `CNc1cc(C)nc(Nc2ccc(OC)c(OCC3CN(C4CCC4)C3)c2)n1` [Compound 576], the IC50 fell in the range of 0.1 to 1 µM.
